Data published in the supplement of paper PMC10307832.

Tests used:
Assay in all cases: relative viability (nuclei count vs DMSO), 5 days (fraction); higher = more cells survive
AT9283 + Bortezomib = compound: O=C(Nc1c[nH]nc1-c1nc2ccc(CN3CCOCC3)cc2[nH]1)NC1CC1 [AT9283] + CC(C)C[C@H](NC(=O)[C@H](Cc1ccccc1)NC(=O)c1cnccn1)B(O)O [Bortezomib] (partner 0.002 µM)
Method in brief: (§1)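 Each reported value is a median over duplicate plates. It expresses relative viability: treated-well nuclei count divided by vehicle-well nuclei count. Lung cancer cell lines in 1536-well plates were dosed by pin tool a day after seeding, alone with one drug or with a fixed anchor-drug dose plus five library-drug doses (not always all listed) in √10 steps, and nuclei were counted after 5 days.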

AT9283 + Pictilisib = compound: O=C(Nc1c[nH]nc1-c1nc2ccc(CN3CCOCC3)cc2[nH]1)NC1CC1 [AT9283] + CS(=O)(=O)N1CCN(Cc2cc3nc(-c4cccc5[nH]ncc45)nc(N4CCOCC4)c3s2)CC1 [Pictilisib] (partner 1 µM)
Method in brief: as §1

Erlotinib + Pemetrexed = compound: C#Cc1cccc(Nc2ncnc3cc(OCCOC)c(OCCOC)cc23)c1 [Erlotinib] + Nc1nc2[nH]cc(CCc3ccc(C(=O)N[C@@H](CCC(=O)O)C(=O)O)cc3)c2c(=O)[nH]1 [Pemetrexed] (partner 0.2 µM)
Method in brief: as §1

AT9283 + Decitabine = compound: O=C(Nc1c[nH]nc1-c1nc2ccc(CN3CCOCC3)cc2[nH]1)NC1CC1 [AT9283] + Nc1ncn([C@H]2C[C@H](O)[C@@H](CO)O2)c(=O)n1 [Decitabine] (partner 2 µM)
Method in brief: as §1

AT9283 + Luminespib = compound: O=C(Nc1c[nH]nc1-c1nc2ccc(CN3CCOCC3)cc2[nH]1)NC1CC1 [AT9283] + CCNC(=O)c1noc(-c2cc(C(C)C)c(O)cc2O)c1-c1ccc(CN2CCOCC2)cc1 [Luminespib] (partner 0.01 µM)
Method in brief: as §1

| Cell Line | relative viability (AT9283 + Bortezomib; first compound 0.003 µM) | relative viability (AT9283 + Bortezomib; first compound 0.03 µM) | relative viability (AT9283 + Bortezomib; first compound 0.09487 µM) | relative viability (AT9283 + Bortezomib; first compound 0.3 µM) | relative viability (AT9283 + Pictilisib; first compound 0.003 µM) | relative viability (AT9283 + Pictilisib; first compound 0.03 µM) | relative viability (AT9283 + Pictilisib; first compound 0.09487 µM) | relative viability (AT9283 + Pictilisib; first compound 0.3 µM) | relative viability (Erlotinib + Pemetrexed; first compound 0.02 µM) | relative viability (Erlotinib + Pemetrexed; first compound 0.2 µM) | relative viability (Erlotinib + Pemetrexed; first compound 0.6325 µM) | relative viability (Erlotinib + Pemetrexed; first compound 2 µM) | relative viability (AT9283 + Decitabine; first compound 0.003 µM) | relative viability (AT9283 + Decitabine; first compound 0.03 µM) | relative viability (AT9283 + Decitabine; first compound 0.09487 µM) | relative viability (AT9283 + Decitabine; first compound 0.3 µM) | relative viability (AT9283 + Luminespib; first compound 0.003 µM) | relative viability (AT9283 + Luminespib; first compound 0.03 µM) | relative viability (AT9283 + Luminespib; first compound 0.09487 µM) | relative viability (AT9283 + Luminespib; first compound 0.3 µM) |
| --- | --- | --- | --- | --- | --- | --- | --- | --- | --- | --- | --- | --- | --- | --- | --- | --- | --- | --- | --- | --- |
| PC-3 [JPC-3] | 0.822 | 0.86 | 0.867 | 0.687 | 0.673 | 0.631 | 0.542 | 0.376 | 0.719 | 0.477 | 0.488 | 0.37 | 0.837 | 0.798 | 0.695 | 0.541 | 0.739 | 0.744 | 0.473 | 0.404 |
| NCI-H1648 | – | – | – | – | – | – | – | – | 0.759 | 0.707 | 0.629 | 0.66 | 0.515 | 0.503 | 0.409 | 0.303 | – | – | – | – |
| NCI-H1563 | 0.859 | 0.79 | 0.822 | 0.703 | 0.572 | 0.606 | 0.585 | 0.54 | 0.659 | 0.83 | 0.92 | – | – | – | – | – | 0.5 | 0.527 | 0.443 | 0.45 |
| 201T | 1.02 | 1.14 | 1.09 | 0.487 | 0.642 | 0.731 | 0.476 | 0.396 | 0.339 | 0.336 | 0.348 | 0.32 | 0.654 | 0.849 | 0.322 | 0.345 | 0.964 | 1 | 0.486 | 0.378 |
| ChaGo-K-1 | 0.889 | 0.908 | 0.356 | 0.303 | 0.357 | 0.511 | 0.179 | 0.233 | 0.276 | 0.259 | 0.267 | 0.26 | 0.483 | 0.523 | 0.26 | 0.222 | 0.63 | 0.422 | 0.289 | 0.26 |
| LOU-NH91 | 0.436 | 0.447 | 0.438 | 0.389 | 0.469 | 0.487 | 0.482 | 0.394 | 0.448 | 0.393 | 0.414 | 0.371 | 0.83 | 0.77 | 0.522 | 0.509 | 0.321 | 0.353 | 0.358 | 0.32 |
| NCI-H522 | – | – | – | – | – | – | – | – | 0.94 | 1.08 | 1.12 | 0.811 | 0.67 | 0.607 | 0.569 | 0.479 | 1.14 | 0.99 | 0.467 | 0.51 |
| NCI-H1395 | – | – | – | – | 0.583 | 0.474 | 0.388 | 0.399 | 0.807 | 0.959 | 0.868 | 0.794 | 0.819 | 0.604 | 0.42 | 0.385 | 0.639 | 0.649 | 0.397 | 0.418 |
| NCI-H727 | 0.824 | 0.508 | 0.351 | 0.306 | 0.379 | 0.395 | 0.225 | 0.167 | – | – | – | – | 0.697 | 0.642 | 0.754 | 0.517 | 0.253 | 0.257 | 0.261 | 0.281 |
| NCI-H358 | – | – | – | – | 0.278 | 0.171 | 0.141 | 0.132 | 0.176 | 0.156 | 0.147 | 0.164 | 0.219 | 0.143 | 0.102 | 0.0856 | 0.4 | 0.147 | 0.166 | 0.129 |
| SW 900 | – | – | – | – | – | – | – | – | 0.497 | 0.495 | 0.461 | 0.445 | 0.422 | 0.442 | 0.349 | 0.232 | 0.178 | 0.19 | 0.172 | 0.171 |
| ABC-1 | 1.05 | 0.261 | 0.117 | 0.283 | 0.76 | 0.269 | 0.232 | 0.256 | – | – | – | – | 1.3 | 0.513 | 0.346 | 0.346 | 0.579 | 0.246 | 0.275 | 0.189 |
| NCI-H2228 | 1.04 | 0.529 | 0.118 | 0.176 | 0.355 | 0.259 | 0.141 | 0.0664 | 0.335 | 0.295 | 0.362 | 0.337 | – | – | – | – | 0.152 | 0.123 | 0.162 | 0.11 |
| LK-2 | – | – | – | – | 0.602 | 0.22 | 0.219 | 0.248 | 0.259 | 0.278 | 0.318 | 0.235 | 0.215 | 0.116 | 0.113 | 0.0972 | 0.195 | 0.19 | 0.176 | 0.206 |
| A549 | – | – | – | – | 0.503 | 0.0938 | 0.0787 | 0.0772 | – | – | – | – | 0.136 | 0.114 | 0.0516 | 0.05 | – | – | – | – |
| Calu-6 | 0.956 | 0.297 | 0.272 | 0.254 | 0.932 | 0.242 | 0.227 | 0.194 | – | – | – | – | – | – | – | – | – | – | – | – |
| NCI-H1793 | – | – | – | – | 0.317 | 0.331 | 0.183 | 0.196 | 1.01 | 0.441 | 0.825 | 0.52 | 0.498 | 0.469 | 0.283 | 0.266 | 0.194 | 0.184 | 0.179 | 0.136 |
| EBC-1 | 0.526 | 0.239 | 0.172 | 0.169 | 0.368 | 0.158 | 0.149 | 0.124 | – | – | – | – | – | – | – | – | – | – | – | – |
| HCC-366 | 1.02 | 0.921 | 0.129 | 0.0684 | 0.145 | 0.152 | 0.0339 | 0.0503 | 0.176 | 0.197 | 0.127 | 0.136 | 0.337 | 0.299 | 0.141 | 0.0851 | – | – | – | – |
| NCI-H1623 | – | – | – | – | – | – | – | – | – | – | – | – | – | – | – | – | 0.466 | 0.559 | 0.437 | 0.37 |
| HCC-78 | 0.425 | 0.472 | 0.237 | 0.245 | 0.211 | 0.218 | 0.123 | 0.151 | 0.883 | 0.912 | 0.892 | 0.899 | 0.548 | 0.626 | 0.428 | 0.322 | – | – | – | – |
| NCI-H1299 | 1.07 | 1.02 | 0.437 | 0.395 | 0.731 | 0.238 | 0.116 | 0.112 | – | – | – | – | – | – | – | – | – | – | – | – |
| NCI-H2342 | – | – | – | – | – | – | – | – | 0.707 | 0.822 | 0.715 | 0.583 | 0.653 | 0.766 | 0.655 | 0.455 | 0.795 | 0.93 | 0.499 | 0.348 |
